From patent US20250108036A1, “COMPOSITIONS FOR REMOVING SENESCENT CELLS AND USES THEREOF” (LIFECEUTIX CO., LTD., priority 2021, published 2025)

How the values were obtained:
Type in all cases: cell-based, human
[1] = tested on: foreskin cells in which senescence was induced by doxorubicin; assay: CellTiter-Glo cell viability of doxorubicin-induced senescent foreskin cells (Examples 1-2, 10, 11, 13; Tables 4, 63, 65); conditions: Homo sapiens, 72 h, doxorubicin-induced senescent foreskin cells, CellTiter-Glo, 0 μM = 100, read-out: Survival (%); for viability at 1.1 µM: 1.1 μM test compound; for viability at 10 µM: 10 μM test compound; for viability at 30 µM: 30 μM test compound; for viability at 90 µM: 90 μM test compound; for viability at […]: […] test compound
Procedure: After 3 days, cell viability was measured using CellTiter-Glo Luminescent Cell Viability Assay (Promega) or light microscopy.

HMGN1 [2] = assay: HMGN1 ELISA in culture medium of foreskin cells (Examples 10, 11; Tables 62, 63, 64); conditions: Homo sapiens, doxorubicin-treated foreskin cells, DMSO = 100; for activity at 90 µM: 90 μM test compound; for activity at 30 µM: 30 μM test compound, read-out: HMGN1
HMGN1 [3] = assay: HMGN1 ELISA in culture medium of A549 cancer cells (Example 12, Table 66); conditions: Homo sapiens, A549, doxorubicin-induced senescent A549 cells, ELISA, DMSO = 100, read-out: HMGN1 (amount of HMGN1 secreted in the cell culture); for activity at 90 µM: test compound 90 μM; for activity at 30 µM: test compound 30 μM
A549 = assay: CellTiter-Glo cell viability of senescent A549 cancer cells (Example 12, Table 67); conditions: Homo sapiens, A549, doxorubicin-induced senescent A549 cancer cells, CellTiter-Glo, read-out: Survival (%); for viability at 1.1 µM: 1.1 μM test compound; for viability at 10 µM: 10 μM test compound; for viability at 30 µM: 30 μM test compound; for viability at 90 µM: 90 μM test compound

Compound `CC/C=C\C/C=C\C/C=C\C/C=C\C/C=C\C/C=C\CCC(=O)O` [LX-2702, Docosahexaenoic acid] has a viability at 1.1 µM [1] of 104%, a viability at 10 µM [1] of 87.4% and a viability at 30 µM [1] of 49.6%. It also gave a viability at 90 µM [1] of 22.9%, a viability at […] [1] of 99.1% and an activity at 90 µM (HMGN1 [2]) of 206%. The activity at 90 µM (HMGN1 [3]) was 237%, the viability at 1.1 µM (A549) was 96.7% and the viability at 10 µM (A549) was 94.4%. It also gave a viability at 30 µM (A549) of 55.1% and a viability at 90 µM (A549) of 9.5%.

Compound `COC1=C(OC)C(=O)C(CCCCCCCCCC[P+](c2ccccc2)(c2ccccc2)c2ccccc2)=C(C)C1=O` [LX-1203, Mitoquinone] has a viability at 10 µM [1] of 1.5%, a viability at […] [1] of 38.2% and an activity at 30 µM (HMGN1 [2]) of 311%. The activity at 30 µM (HMGN1 [3]) was 298%, the viability at 1.1 µM (A549) was 88.7% and the viability at 10 µM (A549) was 15.5%.

Work on `C[C@@H]1C(=O)C(C#N)=C[C@]2(C)c3nn(C)c(-c4ccccc4)c3CC[C@@H]12` [LX-2312] yielded a viability at 1.1 µM [1] of 48.6%, a viability at […] [1] of 5.2% and an activity at 30 µM (HMGN1 [2]) of 293%. It also gave an activity at 30 µM (HMGN1 [3]) of 339%, a viability at 1.1 µM (A549) of 96.3% and a viability at 10 µM (A549) of 7.8%.

With `CCC[C@H]1C(=O)C(C#N)C[C@@]2(C)c3nc(-c4cccc5ncccc45)nc(-c4ccccc4F)c3CC[C@H]12` (stereo partly drawn) [LX-2503] the viability at 1.1 µM [1] was 82.4%, the viability at […] [1] was 25.8% and the activity at 30 µM (HMGN1 [2]) was 297%. It also gave an activity at 30 µM (HMGN1 [3]) of 285%, a viability at 1.1 µM (A549) of 105% and a viability at 10 µM (A549) of 31.2%.

Work on `CCn1c(C#CCNc2ccccc2)cc2cc(CNC)ccc21` [LX-905] yielded a viability at 1.1 µM [1] of 97.6%, a viability at 10 µM [1] of 42.5% and a viability at 30 µM [1] of 6.9%. It also gave a viability at […] [1] of 91.6%, an activity at 30 µM (HMGN1 [2]) of 318% and an activity at 90 µM (HMGN1 [3]) of 217%. The viability at 1.1 µM (A549) was 101%, the viability at 10 µM (A549) was 83.1% and the viability at 30 µM (A549) was 79.5%. The viability at 90 µM (A549) was 22.7%.

With `C=C(CN(C)C)C(=O)c1cc(C)ccc1C` [LX-921] the viability at 1.1 µM [1] was 99.6%, the viability at 10 µM [1] was 89.1% and the viability at 30 µM [1] was 15.7%. It also gave a viability at […] [1] of 89.2%, an activity at 30 µM (HMGN1 [2]) of 311% and an activity at 90 µM (HMGN1 [3]) of 175%. For the same compound, the viability at 1.1 µM (A549) was 99.5%, the viability at 10 µM (A549) was 91.2% and the viability at 30 µM (A549) was 90.9%. The viability at 90 µM (A549) was 39.7%.

`CC1(C)CC[C@]2(CO)CC[C@]3(C)[C@H](C(=O)C=C4[C@@]5(C)[C@H]6O[C@@]6(C#N)C(=O)C(C)(C)[C@@H]5CC[C@]43C)[C@@H]2C1` [LX-2318] was tested, and the viability at 1.1 µM [1] was 78.3%, the viability at […] [1] was 12.1% and the activity at 30 µM (HMGN1 [2]) was 264%. The activity at 30 µM (HMGN1 [3]) was 278%, the viability at 1.1 µM (A549) was 94.1% and the viability at 10 µM (A549) was 31.1%.

In the case of `CC1(C)C=C2[C@H]3CC[C@@H]4[C@@]5(C)CCC(=O)C(C)(C)[C@@H]5CC[C@@]4(C)[C@]3(C)CC[C@@]2(C(=O)O)CC1` [LX-2007, Moronic acid], the viability at 1.1 µM [1] is reported as 105%, the viability at 10 µM [1] is reported as 91.2% and the viability at 30 µM [1] is reported as 83.9%. For the same compound, the viability at 90 µM [1] was 47.2%, the viability at 270 µM ([1]; 270 μM test compound) was 1.3% and the viability at […] [1] was 98.9%. The activity at 270 µM (HMGN1 [2]; 270 μM test compound) was 255%, the activity at 270 µM (HMGN1 [3]; test compound 270 μM) was 192% and the viability at 1.1 µM (A549) was 111%. The viability at 10 µM (A549) was 96.3%, the viability at 30 µM (A549) was 87.9% and the viability at 90 µM (A549) was 62.8%. For the same compound, the viability at 270 µM (A549; 270 μM test compound) was 32.4%.

`CCCCC/C=C\C/C=C\CCCCCCCC(=O)O` [LX-2703, Linoleic acid] gave a viability at 1.1 µM [1] of 100%, a viability at 10 µM [1] of 89.5% and a viability at 30 µM [1] of 55.2%. The viability at 90 µM [1] was 35.2%, the viability at […] [1] was 100% and the activity at 90 µM (HMGN1 [2]) was 218%. For the same compound, the activity at 90 µM (HMGN1 [3]) was 202%, the viability at 1.1 µM (A549) was 101% and the viability at 10 µM (A549) was 99.6%. For the same compound, the viability at 30 µM (A549) was 71.5% and the viability at 90 µM (A549) was 28.3%.

For `CCN(CC)c1nc2c(C(=O)O)c(O)c(I)c(-n3cccc3)c2s1` [LX-911], the viability at 1.1 µM [1] was 94.3%, the viability at 10 µM [1] was 43.5% and the viability at 30 µM [1] was 7.5%. For the same compound, the viability at […] [1] was 91.6%, the activity at 30 µM (HMGN1 [2]) was 294% and the activity at 90 µM (HMGN1 [3]) was 206%. It also gave a viability at 1.1 µM (A549) of 98.4%, a viability at 10 µM (A549) of 82.9% and a viability at 30 µM (A549) of 78.6%. For the same compound, the viability at 90 µM (A549) was 27.4%.

In the case of `CCN(CC)C1CCN(Cc2cc(C#CCNc3ccccc3)cc(I)c2O)CC1` [LX-910], the viability at 1.1 µM [1] is reported as 95.6%, the viability at 10 µM [1] is reported as 68.4% and the viability at 30 µM [1] is reported as 1.1%. It also gave a viability at […] [1] of 84.7%, an activity at 30 µM (HMGN1 [2]) of 278% and an activity at 90 µM (HMGN1 [3]) of 238%. The viability at 1.1 µM (A549) was 95.8%, the viability at 10 µM (A549) was 76.9% and the viability at 30 µM (A549) was 47.5%. The viability at 90 µM (A549) was 2.7%.
